Patent US20060009478A1, “Methods for the treatment of back pain” (priority 2003, published 2006)

Tests used:
[1] = system: patients with moderate to severe chronic pain due to osteoarthritis of the hip or knee; assay: Quality of analgesia, 3-week osteoarthritis study; type: in vivo, human
Method: Quality of Analgesia was assessed weekly at clinic visits. The patient was prompted with the question, “How would you rate the quality of your pain relief at this time?”, and responses were selected from poor, fair, good, very good, and excellent.
The global assessment, quality of analgesia, and pain control, recorded at the end of each week, were summarized in terms of category proportions.
For secondary analysis of data, pain intensity changes, SF-12, and WOMAC were analyzed with the ANOVA methods as described above. Within treatment arms, weeks were compared in pairwise fashion using paired-sample methods. The global assessments, quality of analgesia ratings, and pain control was analyzed at each week, globally and in pairwise fashion, using the Cocharan-Mantel-Haenszel row mean scores (CMH-RMS) test, using equally spaced scores. An “observed data” analysis, without any data imputation, was conducted on pain intensity changes, global assessments, quality of analgesia ratings, pain control, SF-12, and WOMAC using the same analysis methods described previously.

[2] = system: patients with moderate to severe chronic low back pain; assay: Opioid-associated adverse events (constipation, nausea, vomiting, dizziness, somnolence, pruritus), low back pain study
[3] = ITT (N = 102 per active group), LOCF
[4] = event table, all occurrences, through the treatment period, ITT
[5] = event table, % of total number of events
[6] = through the treatment period, ITT population

## COc1ccc2c3c1O[C@H]1C(=O)CC[C@@]4(O)[C@@H](C2)N(C)CC[C@]314 [OXY QID, oxycodone]
[1]; [3]
  Quality of analgesia Week 1: EXCELLENT (4), number (%) of patients: 3 (2.9%)
  Quality of analgesia Week 1: FAIR (1), number (%) of patients: 31 (30.4%)
  Quality of analgesia Week 1: GOOD (2), number (%) of patients: 18 (37.3%)
  Quality of analgesia Week 1: POOR (0), number (%) of patients: 18 (17.6%)
  Quality of analgesia Week 1: VERY GOOD (3), number (%) of patients: 8 (7.8%)
  Quality of analgesia Week 2: EXCELLENT (4), number (%) of patients: 4 (3.9%)
  Quality of analgesia Week 2: FAIR (1), number (%) of patients: 29 (28.4%)
  Quality of analgesia Week 2: GOOD (2), number (%) of patients: 30 (29.4%)
  Quality of analgesia Week 2: POOR (0), number (%) of patients: 19 (18.6%)
  Quality of analgesia Week 2: VERY GOOD (3), number (%) of patients: 16 (15.7%)
  Quality of analgesia Week 3: EXCELLENT (4), number (%) of patients: 5 (4.9%)
  Quality of analgesia Week 3: FAIR (1), number (%) of patients: 23 (22.5%)
  Quality of analgesia Week 3: GOOD (2), number (%) of patients: 32 (31.4%)
  Quality of analgesia Week 3: POOR (0), number (%) of patients: 23 (22.5%)
  Quality of analgesia Week 3: VERY GOOD (3), number (%) of patients: 15 (14.7%)
[1]; Week 3
  Patients reporting a quality of analgesia assessment of very good or excellent at Week 3: 19.6%
[2]; [4]
  Number of events, all opioid-associated adverse events: 2549
  Number of events, all opioid-associated adverse events (by severity table): 2549
  Number of events, constipation: 576
  Number of events, constipation, mild: 430
  Number of events, constipation, moderate: 119
  Number of events, constipation, severe: 27
  Number of events, dizziness: 390
  Number of events, dizziness, mild: 314
  Number of events, dizziness, moderate: 63
  Number of events, dizziness, severe: 13
  Number of events, gastrointestinal disorders: 1143
  Number of events, gastrointestinal disorders (by severity table): 1143
  Number of events, nausea: 459
  Number of events, nausea, mild: 336
  Number of events, nausea, moderate: 93
  Number of events, nausea, severe: 30
  Number of events, nervous system disorders: 952
  Number of events, nervous system disorders (by severity table): 952
  Number of events, pruritus: 454
  Number of events, pruritus, moderate: 93
  Number of events, pruritus, severe: 13
  Number of events, skin and subcutaneous tissue disorders: 454
  Number of events, skin and subcutaneous tissue disorders (by severity table): 454
  Number of events, somnolence: 562
  Number of events, somnolence, mild: 390
  Number of events, somnolence, moderate: 133
  Number of events, somnolence, severe: 39
  Number of events, vomiting: 108
  Number of events, vomiting, mild: 61
  Number of events, vomiting, moderate: 26
  Number of events, vomiting, severe: 21
[2]; [5]
  % of all events, constipation, mild: 16.9%
  % of all events, constipation, moderate: 4.7%
  % of all events, constipation, severe: 1.1%
  % of all events, dizziness: 15.3%
  % of all events, dizziness, mild: 12.3%
  % of all events, dizziness, moderate: 2.5%
  % of all events, dizziness, severe: 0.5%
  % of all events, gastrointestinal disorders: 44.8%
  % of all events, gastrointestinal disorders (by severity table): 44.8%
  % of all events, nausea: 18.0%
  % of all events, nausea, mild: 13.2%
  % of all events, nausea, moderate: 3.6%
  % of all events, nausea, severe: 1.2%
  % of all events, nervous system disorders: 37.3%
  % of all events, nervous system disorders (by severity table): 37.3%
  % of all events, pruritus: 17.8%
  % of all events, pruritus, mild: 13.7%
  % of all events, pruritus, moderate: 3.6%
  % of all events, pruritus, severe: 0.5%
  % of all events, skin and subcutaneous tissue disorders: 17.8%
  % of all events, skin and subcutaneous tissue disorders (by severity table): 17.8%
  % of all events, somnolence: 22.0%
  % of all events, somnolence, mild: 15.3%
  % of all events, somnolence, moderate: 5.2%
  % of all events, somnolence, severe: 1.5%
  % of all events, vomiting: 4.2%
  % of all events, vomiting, mild: 2.4%
  % of all events, vomiting, moderate: 1.0%
  % of all events, vomiting, severe: 0.8%
[2]; [6]
  % of patients reporting constipation: 59.2%
  % of patients reporting constipation, maximum severity mild: 26.7%
  % of patients reporting constipation, maximum severity moderate: 20.9%
  % of patients reporting constipation, maximum severity severe: 11.7%
  % of patients reporting dizziness: 51.9%
  % of patients reporting dizziness, maximum severity mild: 29.6%
  % of patients reporting dizziness, maximum severity moderate: 16.0%
  % of patients reporting dizziness, maximum severity severe: 6.3%
  % of patients reporting gastrointestinal disorders: 77.7%
  % of patients reporting gastrointestinal disorders (by maximum severity table): 77.7%
  % of patients reporting nausea: 58.3%
  % of patients reporting nausea, maximum severity moderate: 22.3%
  % of patients reporting nausea, maximum severity severe: 11.7%
  % of patients reporting nervous system disorders: 79.1%
  % of patients reporting nervous system disorders (by maximum severity table): 79.1%
  % of patients reporting pruritus, maximum severity mild: 28.6%
  % of patients reporting pruritus, maximum severity moderate: 25.2%
  % of patients reporting pruritus, maximum severity severe: 6.3%
  % of patients reporting somnolence: 68.0%
  % of patients reporting somnolence, maximum severity mild: 23.3%
  % of patients reporting somnolence, maximum severity moderate: 29.1%
  % of patients reporting somnolence, maximum severity severe: 15.5%
  % of patients reporting vomiting, maximum severity mild: 9.7%
  % of patients reporting vomiting, maximum severity moderate: 7.8%
  % of patients reporting vomiting, maximum severity severe: 6.8%
  Number of patients reporting constipation: 122
  Number of patients reporting constipation, maximum severity mild: 55
  Number of patients reporting constipation, maximum severity moderate: 43
  Number of patients reporting constipation, maximum severity severe: 24
  Number of patients reporting dizziness: 107
  Number of patients reporting dizziness, maximum severity mild: 61
  Number of patients reporting dizziness, maximum severity moderate: 33
  Number of patients reporting dizziness, maximum severity severe: 13
  Number of patients reporting gastrointestinal disorders: 160
  Number of patients reporting gastrointestinal disorders (by maximum severity table): 160
  Number of patients reporting nausea: 120
  Number of patients reporting nausea, maximum severity mild: 50
  Number of patients reporting nausea, maximum severity moderate: 46
  Number of patients reporting nausea, maximum severity severe: 24
  Number of patients reporting nervous system disorders: 163
  Number of patients reporting nervous system disorders (by maximum severity table): 163
  Number of patients reporting pruritus: 124
  Number of patients reporting pruritus, maximum severity mild: 59
  Number of patients reporting pruritus, maximum severity moderate: 52
  Number of patients reporting pruritus, maximum severity severe: 13
  Number of patients reporting skin and subcutaneous tissue disorders: 124
  Number of patients reporting skin and subcutaneous tissue disorders (by maximum severity table): 124
  Number of patients reporting somnolence: 140
  Number of patients reporting somnolence, maximum severity mild: 48
  Number of patients reporting somnolence, maximum severity moderate: 60
  Number of patients reporting somnolence, maximum severity severe: 32
  Number of patients reporting vomiting: 50
  Number of patients reporting vomiting, maximum severity mild: 20
  Number of patients reporting vomiting, maximum severity moderate: 16
  Number of patients reporting vomiting, maximum severity severe: 14
